# Results published in US11834401B2, “Treating and preventing diseases by modulating cell mechanics” (THE JOHNS HOPKINS UNIVERSITY, priority 2013, dated 2023).
# What was measured:
# [1] = system: ASPC-1 cells; assay: Micropipette aspiration creep test; assay type: cell-based, human; settings: 500 nM, 1 hr, 0.25 nN/μm^2
# Protocol: (§1) The instrumental and experimental setups have been previously described (Effler J C, et al., 2006; Kee Y-S, et al., 2013). Micropipette aspiration assays were all carried out in growth media with 0.1% DMSO. For cortical tension measurements of Dictyostelium cells, pressure was applied to the cell cortex with a micropipette (2-3 m radius, Rp) to the equilibrium pressure (ΔP) where the length of the cell inside the pipette (Lp) was equal to Rp. The effective cortical tension (Teff) was calculated by applying the Young-Laplace equation: ΔP=2Teff(1/Rp-1/Rc), where Rc is the radius of the cell and ΔP is the equilibrium pressure when Lp=Rp (Derganc J, et al., 2000; Octtaviani E, et al., 2006). For creep tests on mammalian strains, a constant aspiration stress was applied over 60 s. The micropipette radius was 3.5-4.5 m. For quantification, the Lp/Rp ratio values was measured every two seconds and plotted as a function of time. A10.7 and HEK293 cells could only be aspirated at a low pressure range (0.15 nN/μm^2), while HPDE, ASPC-1, and HL-60 cells could be aspirated at higher pressure ranges (0.25 nN/μm^2) because they were stiffer.
# [2] = system: HEK293 cells; assay: Micropipette aspiration creep test; assay type: cell-based, human; settings: 500 nM, 1 hr, 0.15 nN/μm^2
# Protocol: as §1
# [3] = system: A10.7 cells; assay: Micropipette aspiration mechanics; assay type: cell-based, human; settings: PDAC A10.7 cells
# Protocol: as §1
# [4] = system: Panc10.05 tissue spheroids; assay: Tissue spheroid dissemination and cortical actin structure; assay type: cell-based, human
# Protocol: Tissue spheroids were grown by plating Panc10.05 cells on a drop of Matrigel (Becton-Dickinson) in an 8-well slide chamber (6,500 cells per well) and grown in RPMI 1640 media (2% serum, 2% matrigel, and 10 ng/ml EGF). Spheroids were grown for 14 days with regular media changes, then aspirated off the surface of the matrigel, washed with ice-cold PBS with mild centrifugation ([…], 5 min). For all 2D spreading assays, spheroids were then plated on 50 µg/ml collagen-coated 8-well coverslips (MatTek) and incubated for 48 hrs in complete PANC media with 500 nM 4-HAP or PBS control. For 3D invasion assays, spheroids were resuspended in a 1.5 mg/ml collagen solution (Life Technologies) and then plated in 8-well chambered coverslips. […] All spheroid samples were fixed in 4% paraformaldehyde for 15 min at 25° C. and permeabilized in 0.1% Triton X-100 for 15 min at 25° C. The actin cytoskeleton was visualized with rhodamine-phalloidin ([…]) for 30 min. Two-dimensional spreading was visualized with Olympus Spinning disk microscope (40× oil objective, 1.30NA) or Nikon-NSIM (100× objective, 1.4NA) with an Andor EMCCD camera controlled by NIS-Elements software. Three-dimensional invasion through collagen was visualized with an Olympus Spinning Disk microscope (20× air, 0.4NA).
# Quantification of 2D spheroids plated on a thin layer of collagen was performed using a custom-designed Matlab script (Mathworks, Natick, Mass.). A maximum intensity projection of 20 z-slices was extracted from each of the images and converted to 16-bit grayscale before enhancing the pixel intensity (Matlab command: histeq). The enhanced image was then segmented into foreground and background using the Chan-Vese method (activecountour), followed by filtering of small regions (bwareaopen), and morphological erosion (imerode). The boundary from this object was then obtained (bwboundary) and average background intensity was subtracted. This method was used for more than 80% of the images. […] This option allowed the user to select a region of interest surrounding the outer edge of the spheroid (roipoly). Anything outside of this boundary was masked and subsequently not considered (regionfill). Following this, a similar binarization/background subtraction regime was implemented on the unmasked region and the boundary was traced.
# For each point along the boundary, a line perpendicular to the edge was computed and the intensity along this line was used to linearize the cortex. The resultant matrix was converted into a grayscale image. The Hough Transform was used to determine the continuity of the actin belt along the edge of the cortex. Linearized cortex images were binarized using a threshold chosen to best differentiate belt from non-belt for each set of images (imbinarize), followed by filtering of small regions (bwareaopen), and morphological dilation (imdilate). The Hough Transform was performed on this image (hough), and Hough peaks and lines identified (houghpeaks, houghlines). These were used to create a continuity score defined by (E Hough line lengths)/(number of lines+length of image). In this metric, higher scores indicate a more continuous actin belt at the cortex. Additionally, we computed: a coarseness index of the cortex (std2) to describe actin distribution, the percentage of white pixels of the binarized image to characterize actin belt thickness, and the ratio of white pixels to gray pixels (greater than 0.15) to describe the distribution of fluorescence.
# [5] = system: AsPC-1 cells; assay: Hemi-splenectomy PDAC liver metastasis model; assay type: in vivo, athymic NCr-nu/nu mice; settings: 5 mg/ml, 200 μl IP every other day
# Protocol: Therefore, the inventors tested 4-HAP in a mouse model for PDAC metastasis. Hemi-splenectomies with 4-HAP pre-treated metastatic AsPC-1 cells were performed on nude mice which were subsequently divided into three groups: control, PBS (200 μl PBS IP injections, every other day), and 4-HAP (5 mg/ml, 200 μl IP injections, every other day). Mice were harvested at 5-weeks post-surgery, when the first mouse expired. Metastasis to the liver was observed and quantified by an in-house Matlab script that determined surface area tumor coverage.
# Hemi-splenectomies were performed on athymic NCr-nu/nu mice (Charles River Laboratories) with low passage AsPC-1 cells as previously described. In short, laparotomies were performed on anesthetized mice in which the upper pole of a divided spleen was reinserted into the peritoneum while 1×10^7 AsPC-1 cells prepared in phosphate buffered saline were injected into the lower splenic pole, chased by an equal volume of phosphate buffered saline. The pancreas and splenic vessels were ligated and the peritoneum was closed.
# AsPC-1 cells were pretreated with 50 μM 4-HAP or PBS 24 hr prior to injection during hemisplenectomies. […]
# Quantifications of mouse livers were performed using a custom-designed Matlab script. […] The percent coverage of tumor was calculated.
structure (smiles),measurement,setting,value
"CC(=O)c1ccc(O)cc1 [4-HAP, 4-hydroxyacetophenone]",deformability in creep test,[1],"stiffens ASPC-1 cells, shifting them towards HPDE-like mechanics"
same,deformability in creep test,[2],stiffens the soft HEK293 cells
same,cortical tension,[3],decreases the cortical tension
same,dissemination from spheroids,"[4]; NMIIA knockdown, 3D collagen I, 24 hours",decreased
same,dissemination from spheroids,"[4]; control knockdown, 3D collagen I, 24 hours",decreased
same,actin band continuity score,[4]; control spheroids,decreased upon treatment with 4-HAP
same,cortex coverage by actin bands,[4]; control spheroids,decreased cortex coverage
same,cortex coverage by actin bands,[4]; myo IIA knockdowns,the coverage increased
same,cortex coverage by actin bands,[4]; myo IIC knockdowns,unaffected by the treatment of 4-HAP
same,increase in median percentage staining of actin at tissue edge,"[4]; myosin IIA knockdown spheroids, 2D",2 fold
same,dissemination from spheroids,[4]; myosin IIC-depleted spheroids,no effect was observed
same,actin band continuity score,"[4]; shIIA spheroids, p=0.01",increased significantly
same,actin belt formation,[4]; when myosin IIC is present,Actin belts are formed
same,tumor formation (liver weights and tumor coverage),[5],reduction in tumor formation
same,reduction in surface tumor load (liver tumor coverage),[5]; 5-weeks post-surgery,50%
